Assay results: the NIST ThermoML archive (doi:10.1016/j.jct.2012.11.011)

Assay: xn = mol fraction of the nth substance listed
Conditions: Liquid, Vibrating tube method

COC(=O)OC [dimethyl carbonate] + CCCCCCCC
mass density [kg/m3]
Conditions | x1 = 0.0535 | x1 = 0.0978 | x1 = 0.3935 | x1 = 0.496 | x1 = 0.5475 | x1 = 0.5937 | x1 = 0.7002 | x1 = 0.8013 | x1 = 0.8979 | x1 = 0.9502
288.15 K, 100 kPa | 716.4 | 723.8 | 791.6 | 822.9 | 840.9 | 854.9 | 899.6 | 941.7 | 1005 | 1036.8
288.15 K, 5000 kPa | 719.8 | 727.9 | 796.9 | 827.5 | 844.6 | 862 | 904.6 | 952.4 | 1009 | 1043.2
288.15 K, 10000 kPa | 723.6 | 731.9 | 801.1 | 831.8 | 849 | 866.2 | 908.9 | 956.9 | 1013.3 | 1047.5
288.15 K, 20000 kPa | 730.9 | 739.3 | 808.8 | 839.6 | 857 | 874.3 | 917 | 965 | 1021.7 | 1055.7
288.15 K, 30000 kPa | 737.5 | 745.8 | 816 | 846.9 | 864.3 | 881.6 | 924.4 | 972.5 | 1029.1 | 1063.1
288.15 K, 40000 kPa | 743.7 | 752 | 822.8 | 853.8 | 871.2 | 888.7 | 931.6 | 979.7 | 1036.3 | 1070.4
298.15 K, 100 kPa | 707.4 | 715.3 | 782.6 | 812.6 | 829.5 | 846.5 | 888.6 | 936 | 992.1 | 1025.9
298.15 K, 5000 kPa | 712.2 | 720.2 | 787.8 | 817.9 | 834.9 | 851.7 | 893.9 | 941.4 | 997.3 | 1031.1
298.15 K, 10000 kPa | 715.9 | 724.1 | 791.8 | 822 | 839 | 856.1 | 898.1 | 945.6 | 1001.5 | 1035.3
298.15 K, 20000 kPa | 723.6 | 731.7 | 800.1 | 830.4 | 847.5 | 864.6 | 906.8 | 954.2 | 1010.1 | 1043.7
298.15 K, 30000 kPa | 730.5 | 738.7 | 807.7 | 838.1 | 855.3 | 872.4 | 914.8 | 962.1 | 1018 | 1051.7
298.15 K, 40000 kPa | 736.8 | 745.1 | 814.6 | 845.1 | 862.5 | 879.6 | 922 | 969.7 | 1025.6 | 1059.1
308.15 K, 100 kPa | 699.2 | 706.9 | 772.9 | 802.3 | 819 | 835.7 | 877.3 | 924.1 | 979.6 | 1013.1
308.15 K, 5000 kPa | 704 | 711.8 | 778.1 | 807.6 | 824.2 | 841 | 882.6 | 929.2 | 984.6 | 1018.1
308.15 K, 10000 kPa | 708.3 | 716.2 | 782.8 | 812.4 | 829.1 | 845.9 | 887.5 | 934.4 | 989.6 | 1023.1
308.15 K, 20000 kPa | 716.3 | 724.3 | 791.5 | 821.3 | 838.1 | 854.9 | 896.6 | 943.4 | 998.7 | 1032.1
308.15 K, 30000 kPa | 723.7 | 731.6 | 799.6 | 829.5 | 846.4 | 863.3 | 905 | 951.9 | 1007.1 | 1040.4
308.15 K, 40000 kPa | 730.4 | 738.4 | 806.9 | 836.9 | 853.9 | 870.8 | 912.8 | 959.7 | 1015 | 1048.3
